The values that follow come from patent US20220257767A1, “IONIC LIQUIDS FOR DRUG DELIVERY” (PRESIDENT AND FELLOWS OF HARVARD COLLEGE, priority 2019, published 2022).

Converted amounts (≈) assume the structure as drawn. “Also recorded” adds a separate entry of the source. Bounds are passed on as bounds.

Test system in one data set: not listed separately
Kind of data set: Solubility of the model drugs in PBS and in CAGE variants. The settings on record: PBS, aqueous buffer. The data set is classed as physicochemical.
With `C[C@H]1O[C@H](O[C@H]2[C@H](O)[C@@H](O)[C@@H](O[C@H]3[C@H](O)[C@@H](O)C(O)O[C@@H]3CO)O[C@@H]2CO)[C@H](O)[C@@H](O)[C@@H]1N[C@H]1C=C(CO)[C@@H](O)[C@H](O)[C@H]1O` (stereo partly drawn) [Acarbose, acarbose], the solubility is at least 1000 µg/mL.
Still for that read-out and setting: to `N#CC[C@H](C1CCCC1)n1cc(-c2ncnc3[nH]ccc23)cn1` [ruxolitinib] belongs 200 µg/mL (≈ 653 µM).

The next data set deals with porcine skin.
Assay: not given
Details: not given
“Choline geranate [CAGE] [listing 1 of 2 here]”: the “Acarbose: Rank” value is reported as 2, the “Average Rank” value is 5 and the “Ruxolitinib: Rank” value was 8.
For the molecule “Choline geranate [CAGE] [listing 2 of 2 here]”, the “Acarbose: Rank” value was 1, the “Average Rank” value is 1, the “Ruxolitinib: Rank” value turned out to be 3 and the “delivery/transport of acarbose into skin (in words)” value is listed as “highest delivery efficacy”. Moreover, the “delivery/transport of ruxolitinib into skin (in words)” value was “highest delivery efficacy”.

Test system in another data set: not given
Assay: not given
The settings on record: exemplary anions, Table 5; cited from earlier work.
Consider `CCCCCCCC(=O)O` [Octanoic Acid], for which the LogP is given as 3.01 and the pKa is listed as 4.895.
Consider `CCCCC(CC)COS(=O)(=O)[O-].[Na+]` (stereo not drawn) [2-ethylhexyl sulfate], for which the log partition coefficient (LogP) is 3.10.
As to `O=C(O)CCCC[C@@H]1CCSS1` [(R)-5-(1,2-dithiolan-3-yl)pentanoic acid], the pKa was 5.10.
Turning to `O=C(O)CCCCCCCC(=O)O` [Nonanedioic Acid], the pKa is listed as 4.55.
Turning to `CC(C)=CCC/C(C)=C/C(=O)O` [Geranic Acid], the LogP is reported as 2.72 and the pKa is 5.26.
Turning to Decenoic Acid, the log partition coefficient (LogP) was 4.02 and the pKa is reported as 5.03.
Take `O=C(O)C(O)c1ccccc1` (stereo not drawn) [Hydroxyl(phenyl)acetic acid]: the LogP is on record as 1.2 and the pKa was 3.41.
Take `O=C(O)CCCC(=O)O` [Glutaric Acid]: the LogP is −0.29 and the pKa is given as 4.34.
On to `O=C(O)c1ccccc1O` [Salicylic Acid], for which the LogP was 2.2.
For the molecule `CN(C)CCO` [2-(dimethylamino)ethanol], the pKa is on record as 9.3.
For the molecule `CC(C)C(=O)O` [2-methylpropanoic acid], the log partition coefficient (LogP) is recorded as 0.73.
Turning to `CCC(O)CCCCCCC(=O)O` (stereo not drawn) [8-hydroxycapric acid], the LogP is 2.2.
`CC(C)=CCCC(C)CC(=O)O` (stereo not drawn) [Citronellic Acid, 3,7-dimethyl-6-octenoic acid]: the LogP is 2.8 and the pKa is reported as 5.19.
On to `COc1cc(/C=C/C(=O)O)ccc1O` [(E)-3-(4-hydroxy-3-methoxy-phenyl)prop-2-enoic acid], for which the pKa is 4.42.
With `CCCCC/C=C/C(=O)O` [Octenoic Acid, trans-2-octenoic acid], the LogP is 2.9 and the pKa is 5.05.
As for Hexenoic Acid, the lipophilicity (LogP) is 1.8 and the pKa is 5.13.
Regarding `CCCCCCC(O)C(=O)O` (stereo not drawn) [2-hydroxyoctanoic acid], the lipophilicity (LogP) is 1.8 and the pKa is recorded as 4.42.

Test system in a further data set: not given
Assay: not given
The settings on record: model drugs; cited from earlier work.
Consider `N#CC[C@H](C1CCCC1)n1cc(-c2ncnc3[nH]ccc23)cn1` [ruxolitinib], for which the “Log P” value is 2.9.

The subject of the next data set is porcine skin. The data set can be described thus: Skin penetration studies using porcine skin in Franz diffusion cells, drug quantified by HPLC. To be noted: 24 h, listed as pure geranic acid.
Source text: Skin Penetration Studies. The skin penetration studies were undertaken using porcine skin in Franz diffusion cells, as described in full previously (skin area=1.7 cm^2). […] Briefly, thawed, washed porcine skin was placed in a diffusion cell with the SC facing upwards. The acceptor component of the cell was filled with PBS and equipped with a magnetic stirrer bar. Only cells with a measured trans-epidermal current less than 12 μA were used in the study and the treatments were randomly assigned. 300 μL of drug solution in each IL (1 mg/mL) was placed on top of the skin, ensuring full coverage. The cell was placed on a stirrer plate at 37° C. for 24 hours, at which point the skin was removed and the surface was washed gently with PBS. Each skin layer was then separated. The stratum corneum was removed by tape stripping (up to ten layers), the epidermis was separated from the dermis with a scalpel, and a 4 mm punch was used thrice to remove a third of the dermis (by area).
HPLC Analysis. The analysis of the amount of drug present in each layer was determined by HPLC. […] For ruxolitinib, an Inertsil ODS C-18 column with 250×4.6 mm internal diameter and 5μm particle size was employed.
Consider `CC(C)=CCC/C(C)=C/C(=O)O` [Geranic Acid], for which the “delivery/transport of acarbose into skin (in words)” value is recorded as “no significant transport; also recorded: did not yield a noticeable skin flux” and the “delivery/transport of ruxolitinib into skin (in words)” value is listed as “no significant transport; also recorded: did not yield a noticeable skin flux”.

For orientation: solubility means the concentration that dissolves in the medium under given conditions. High values mean a readily soluble substance, low ones a poorly soluble substance. One may read the LogP as the decadic logarithm of the partition coefficient of the neutral form, usually between octanol and water. The term pKa denotes the pH at which an ionisable group is half protonated. A word on the Log P: it is a log measure of how a compound divides between an organic and an aqueous phase.
